The results in this text go back to US10766888B1, “HMOX1 inducers” (Mitobridge Inc., priority 2019, dated 2020).

The assay deals with FTH1. Put plainly: FTH1 mRNA expression in HepG2 cells (Nanostring). It is filed as cell-based, human. The settings on record: 24 hours treatment. Here is the method: RNA Isolation and Quantification of Gene Expression
HepG2 cells were seeded at 250 k/well in 12-well tissue culture plates coated with collagen (collagen I, rat tail (thin plate coating); ENZO Life Sciences) for approximately 24 hours. The seeded cells were then treated with dose titration of the compound of Example 17 or dimethyl fumarate (DMF) (a Nrf2 activator; Fisher Scientific) via media change, with biological triplicates performed for each treatment. After approximately 24 hours of treatment, cells were visually inspected to confirm that no toxicity occurred with compound treatment. The treated cells were washed with PBS, aspirated, parafilmed and frozen at −80° C. prior to RNA isolation. RNA was isolated using Machery-Nagel isolation kit (NucleoSpin® RNA: catalog 740955.250) and then quantitated using ThermoFisher Nanodrop.
RNA was diluted for Nanostring gene expression analysis. The diluted RNA at an input of 200 ng RNA was run on a Nanostring instrument, which was supported with nCounter® SPRINT Profiler System and nSolver4.0 Software, nCounter® SPRINT Cartridge, nCounter® SPRINT Reagent Pack, and nCounter® SPRINT Hybridization Buffer. Analysis was done manually using raw data obtained from nSolver4.0 Software. CLTC, POLR2A, RPL27 and TBP were used as reference genes for normalization. Data was graphed as fold change compared to DMSO treatment. […]

SMILES strings stand for the structures.

Consider `Cn1c(Nc2nc3ccccc3o2)nc2cc(C(=O)NCCOCCO)ccc21` [Example 17, 2-(benzo[d]oxazol-2-ylamino)-N-(2-(2-hydroxyethoxy)ethyl)-1-methyl-1H-benzo[d]imidazole-5-carboxamide], for which the “FTH1 expression fold increase (in words)” value is given as “comparable fold increases”.
